Assay results published in PubChem BioAssay (NCI).
Where “and” joins values, the source holds several entries; their conditions need not be identical. Identical values can stand only once.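 Cultured in 96-well plates, cells were exposed to test compound for 48 hours across five concentrations. At the GI50, growth is halved. TGI denotes the concentration required for complete inhibition of growth.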 Where a SMILES comes first, the peptide text is derived from it. [ ]: non-standard residue; d: D form. NMeY = CN[C@@H](Cc1ccc(O)cc1)C(=O)O; dNMeF = CN[C@H](Cc1ccccc1)C(=O)O; Sar = CNCC(=O)O

Legend:
Assay in all cases: inhibition of tumour cell growth, NCI panel, 48 h
NCI-H226 lung = test system: NCI-H226 lung
SK-MEL-5 melanoma = test system: SK-MEL-5 melanoma
MALME-3M melanoma = test system: MALME-3M melanoma
HCT-15 colon = test system: HCT-15 colon
MOLT-4 leukemia = test system: MOLT-4 leukemia
HS 578T breast = test system: HS 578T breast
SR leukemia = test system: SR leukemia
CAKI-1 renal = test system: CAKI-1 renal
A498 renal = test system: A498 renal
SF-539 CNS = test system: SF-539 CNS

SMILES	GI50 (NCI-H226 lung)	TGI (NCI-H226 lung)	GI50 (SK-MEL-5 melanoma) [µM]	TGI (SK-MEL-5 melanoma)	GI50 (MALME-3M melanoma) [µM]	TGI (MALME-3M melanoma)	GI50 (HCT-15 colon)	TGI (HCT-15 colon) [µM]	GI50 (MOLT-4 leukemia)	TGI (MOLT-4 leukemia)	GI50 (HS 578T breast) [µM]	TGI (HS 578T breast) [µM]	GI50 (SR leukemia) [µM]	TGI (SR leukemia) [µM]	GI50 (CAKI-1 renal)	TGI (CAKI-1 renal)	GI50 (A498 renal) [µM]	TGI (A498 renal)	GI50 (SF-539 CNS)	TGI (SF-539 CNS)
CC[C@H](C)[C@@H]1NC(=O)[C@H](Cc2ccc(O)cc2)N(C)C(=O)[C@H](Cc2ccccc2)NC(=O)CN(C)C(=O)[C@@H]2CCCN2C(=O)[C@@H](Cc2ccccc2)N(C)C(=O)[C@H](CC(C)C)NC1=O (cyclo(F[NMeY]IL[dNMeF]P[Sar]))	0.768 µM	8.18 µM	0.485	1.85 µM	0.164	1.81 µM	4.1 µM	19.8	0.314 µM	10.6 µM	0.137	1.25	0.123	6.28	0.805 µM	11.3 µM	0.695	6.11 µM	0.287 µM	2.61 µM
CC(=O)OC1CCC2(C)C(CCC3C4CC=C(C(C)=O)C4(C)OC(=O)CC32)C1 (stereo unspecified)	1.95 µM	4.32 µM	2.13	4.95 µM	1.61	3.67 µM	1.13 µM	2.61	2.29 µM	6.41 µM	3.79	29.8	0.382	18.2	2.54 µM	9 µM	6.59	19.9 µM	1.8 µM	3.55 µM
CCOC(=O)c1ccc(Nc2sc(C(=O)c3cccc([N+](=O)[O-])c3)c(N)c2C#N)cc1	4.67 µM	99.5 µM	0.156	12.2 µM	0.0754	23 µM	0.102 µM	> 100	0.203 µM	6.59 µM	0.129	> 39.1	0.034	4.71	0.044 µM	0.253 µM	0.0827	5.04 µM	0.0885 µM	13.2 µM
Cc1ncc(C(=O)Nc2ccc(CN3CCN(C)CC3)c(C(F)(F)F)c2)cc1C#Cc1cnc(N)c2ncccc12	0.293 µM	24.3 µM	1.02	4.44 µM	< 0.0177	0.135 µM	0.0752 µM	1.79	0.0946 µM		0.23	4.69	0.472		0.0719 µM	1.46 µM	0.228	2.38 µM	1.12 µM	2.59 µM
Nc1c(C(=O)c2cccc(C#CCN3CCOCC3)c2)cnn1-c1ccc(F)cc1	> 20.4 µM	> 25 µM	8.88	> 25 µM	> 12.4	> 25 µM	11.2 µM	> 25	> 25 µM	> 25 µM	> 25	> 25	4.09	> 25	> 16 µM	> 25 µM	11.1	> 25 µM	> 25 µM	> 25 µM
O=C(NC(=S)NNC(=S)NNc1ccccc1)c1ccccc1	4.62 µM	> 100 µM	3.73	> 100 µM	24.2	> 100 µM	5.21 µM	> 100	4.81 µM	49.9 µM	1.55	> 100	3.7	> 100	4.75 µM	> 100 µM	37.5	> 100 µM	3.94 µM	44.1 µM
COc1ccc2[nH]c(=O)c(/C=C/C(=O)/C=C/c3ccc(O)c(OC)c3)cc2c1	2.14 µM	6.07 µM	1.77	3.27 µM	2.16	5.28 µM	1.41 µM	3.81	2.93 µM	> 100 µM	3.81	> 100	0.381	> 100	1.71 µM	3.1 µM			1.58 µM	3.21 µM
COc1cccc(-n2ncc3c(N/N=C/c4ccc(S(C)(=O)=O)cc4)ncnc32)c1	5.46 µM	18.1 µM	3.45	> 15.8 µM	4.21	> 25 µM	> 25 µM	> 25	> 25 µM	> 25 µM	0.608	7.34	> 12.4	> 25	4.81 µM	> 25 µM	0.75	11.3 µM	6.22 µM	> 25 µM
Nc1c(C(=O)c2cccc(CCC3(O)CCCC3)c2)cnn1-c1ccc(F)cc1	8.04 µM	> 25 µM	4.78	13.3 µM	7.88	> 25 µM	18.7 µM	> 25	10.2 µM	> 25 µM	12.7	> 25	13.6	> 25	> 25 µM	> 25 µM	3.62	> 25 µM	18.2 µM	> 25 µM
N#CSCc1c(Cl)cccc1Cl	12.6 µM	> 100 µM	4.5	21.2 µM	8.71	> 100 µM	2.96 µM	> 100			3.04	8.26		> 24	0.309 µM	> 20.2 µM	4.76	19.6 µM	3.45 µM	> 35.5 µM
CC[N+]1(C)CCC(O)(c2ccccc2)C(C(=O)c2ccccc2)C1 (stereo unspecified)		38.8 µM		33.6 µM		32.6 µM		21.8		11.3 µM		74		15.6		7.51 µM		30.7 µM		31.3 µM
C#C[C@@]1(O)[C@@H](CO)O[C@@H](n2ccc3c(N)ncnc32)[C@@H]1O	2.05 µM	4.85 µM	1.56	2.96 µM	1.68	5.55 µM	0.892 µM	4.62	0.614 µM	> 100 µM	4.67	> 100	0.817	> 100					1.9 µM	4.44 µM
CCCCCCCCCCCC[n+]1ccccc1	1.44 µM	8.83 µM	1.06	2.26 µM	1.18	3.41 µM	2.61 µM	16.4	1.17 µM	3.66 µM	1.87	5.87	0.202	2.15			1.57	7.48 µM	1.47 µM	4.9 µM
C/C(=N\NC(=O)c1ccccc1O)c1cccc(/C(C)=N/NC(=O)c2ccccc2O)n1	5.8 µM and 3.79 µM	> 100 µM	0.621	44.9 µM and > 48 µM	0.522	43.9 µM and > 100 µM	0.568 µM	> 100	0.424 µM	17.5 µM and > 100 µM	> 100	> 100		> 100		> 100 µM	2.42	> 100 µM and 16.7 µM	5.96 µM and 0.918 µM	23.3 µM and > 100 µM
Nc1ncnc2c(C3OC(CO)C(O)C3O)[nH]nc12 (stereo unspecified)	0.529 µM and 0.793 µM	5.83 µM and 10.7 µM	0.984	10.9 µM and 7.47 µM	0.519	5.33 µM and 2.75 µM	0.0383 µM and 0.0444 µM	0.156	3.59 µM and 2.01 µM	38.3 µM	0.533	5.34	0.0347		0.0365 µM and 0.061 µM	0.281 µM and 0.214 µM	0.203	3.98 µM and 4.78 µM	0.271 µM	2.32 µM and 5.87 µM
Nc1nc(N)c2c(ccc3nccc32)[nH]1	15.2 µM	> 88.9 µM	2.28	> 33.9 µM	5.28	33.6 µM	2.35 µM	> 100	3.12 µM	> 92.1 µM	> 21.8	> 64.7	1.29		2.82 µM	12.8 µM	18.3	98.3 µM	3.26 µM	> 86.1 µM
O=Cc1ccc(Oc2c3ccccc3nc3occc23)cc1									6.89 µM	24.4 µM	13.4	51.6	16	44.7	12.7 µM	30.2 µM			18.2 µM	37.5 µM
NC(CSc1nc2ccccn2c1[N+](=O)[O-])C(=O)O (stereo unspecified)		> 100 µM		> 100 µM		> 100 µM		> 100				> 100		> 100		> 100 µM		> 100 µM		> 100 µM
O=C(O)C[O][Sb][O]CC(=O)O	> 100 µM	> 100 µM	> 100	> 100 µM	> 100	> 100 µM	> 100 µM	> 100	> 100 µM	> 100 µM	> 100	> 100	> 100	> 100	> 100 µM	> 100 µM	> 100	> 100 µM		
CC1=CC2=C(C(N)=O)C(=O)OC2(C)C(c2ccccc2)C1 (stereo unspecified)		> 100 µM				> 100 µM		> 100		> 100 µM		> 100		> 100				> 100 µM		> 100 µM
C/C1=C\C/C=C(\C)[C@H]2CC(CC/C(C)=C/CC1)[C@@](C)(CO)O2	> 100 µM	> 100 µM	87.3	> 100 µM			> 100 µM	> 100	23.5 µM	> 100 µM	> 100	> 100	14.6	43.8	44.9 µM	> 100 µM	54.1	> 100 µM	> 100 µM	> 100 µM
